Columns and labels:
[1] = molecular target: T1, von Hippel-Lindau disease tumor suppressor/Interleukin-1 receptor-associated kinase 3 (Homo sapiens) (UniProt Q9Y616+P40337); test: Protac activity at VHL/IRAK3 in LPS-induced human THP1 cells assessed as induction of IRAK3 degradation at 1 uM by Western blot analysis relative to control; assay type: cell-based; details: THP-1
[2] = molecular target: T2, Interleukin-1 receptor-associated kinase 3 (Homo sapiens, UniProt Q9Y616); test: Inhibition of kinase tracer 236 binding to recombinant human full-length GST-tagged IRAK3 expressed in insect cells by Lanthascreen Eu kinase binding assay
T2 sequence (Q9Y616 whole entry): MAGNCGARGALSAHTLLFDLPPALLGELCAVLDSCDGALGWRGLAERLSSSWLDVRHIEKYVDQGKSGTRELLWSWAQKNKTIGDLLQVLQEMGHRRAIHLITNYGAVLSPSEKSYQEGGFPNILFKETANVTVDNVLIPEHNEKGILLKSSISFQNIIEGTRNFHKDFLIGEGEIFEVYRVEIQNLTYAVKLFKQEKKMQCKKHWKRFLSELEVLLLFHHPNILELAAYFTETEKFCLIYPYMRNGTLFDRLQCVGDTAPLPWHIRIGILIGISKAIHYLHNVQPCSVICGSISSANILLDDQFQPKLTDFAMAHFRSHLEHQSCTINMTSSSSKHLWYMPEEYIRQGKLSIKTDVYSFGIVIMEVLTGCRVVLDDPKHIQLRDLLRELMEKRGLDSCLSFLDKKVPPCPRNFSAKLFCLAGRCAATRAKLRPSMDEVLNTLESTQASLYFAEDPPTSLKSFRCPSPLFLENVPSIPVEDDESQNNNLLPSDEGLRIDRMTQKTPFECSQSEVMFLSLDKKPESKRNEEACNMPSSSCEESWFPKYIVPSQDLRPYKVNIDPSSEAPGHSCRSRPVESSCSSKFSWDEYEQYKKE

[3] = molecular target: T3, Interleukin-1 receptor-associated kinase 4 (Homo sapiens, UniProt Q9NWZ3); test: Inhibition of recombinant human full-length His-tagged IRAK4 expressed in baculovirus expression system using 5-FAM-IPTSPITTTYFFFKKK-COOH as substrate measured after 240 mins by mobility shift assay
T3 sequence (Q9NWZ3 whole entry): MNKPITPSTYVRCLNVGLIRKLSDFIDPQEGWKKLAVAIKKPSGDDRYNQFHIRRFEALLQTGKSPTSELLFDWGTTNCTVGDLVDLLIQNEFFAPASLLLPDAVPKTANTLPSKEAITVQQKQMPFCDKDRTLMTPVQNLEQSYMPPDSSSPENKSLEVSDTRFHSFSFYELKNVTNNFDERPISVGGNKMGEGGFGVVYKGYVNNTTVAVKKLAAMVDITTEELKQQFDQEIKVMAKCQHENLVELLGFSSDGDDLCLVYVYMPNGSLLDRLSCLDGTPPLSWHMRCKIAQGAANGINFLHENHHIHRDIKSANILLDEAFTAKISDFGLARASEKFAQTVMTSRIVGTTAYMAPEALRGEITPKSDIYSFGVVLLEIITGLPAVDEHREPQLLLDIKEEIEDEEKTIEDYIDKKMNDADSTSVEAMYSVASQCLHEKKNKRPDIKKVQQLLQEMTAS

[4] = Octanol/buffer partition coefficient, log D of the compound at pH 7.4 by shake-flask method; assay type: physicochemical
[5] = molecular target: T1, von Hippel-Lindau disease tumor suppressor/Interleukin-1 receptor-associated kinase 3 (Homo sapiens); test: Protac activity at VHL/IRAK3 in LPS-induced human THP1 cells assessed as induction of IRAK3 degradation at 10 uM by Western blot analysis relative to control; assay type: cell-based; details: THP-1
[6] = molecular target: T4, Protein cereblon/Interleukin-1 receptor-associated kinase 3 (Homo sapiens, UniProt Q9Y616+Q96SW2); test: Protac activity at CRBN/IRAK3 in LPS-induced human THP1 cells assessed as induction of IRAK3 degradation at 10 uM by Western blot analysis relative to control; assay type: cell-based; details: THP-1
Target sequence in this assay (Q96SW2 whole entry, looked up, one chain of several): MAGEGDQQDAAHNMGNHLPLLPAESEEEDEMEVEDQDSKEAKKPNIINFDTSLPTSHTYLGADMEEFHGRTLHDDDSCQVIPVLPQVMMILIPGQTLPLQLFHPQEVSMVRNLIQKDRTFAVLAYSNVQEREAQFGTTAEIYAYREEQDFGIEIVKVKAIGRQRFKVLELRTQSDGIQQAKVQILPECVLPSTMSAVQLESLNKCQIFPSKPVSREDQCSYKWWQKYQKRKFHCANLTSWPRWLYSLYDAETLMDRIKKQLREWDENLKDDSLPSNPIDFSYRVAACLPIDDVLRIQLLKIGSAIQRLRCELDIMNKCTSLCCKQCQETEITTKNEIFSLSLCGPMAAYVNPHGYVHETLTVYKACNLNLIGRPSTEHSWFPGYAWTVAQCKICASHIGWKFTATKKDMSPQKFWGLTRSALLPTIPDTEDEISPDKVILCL

[7] = molecular target: T4, Protein cereblon/Interleukin-1 receptor-associated kinase 3; test: Protac activity at CRBN/IRAK3 in LPS-induced human THP1 cells assessed as induction of IRAK3 degradation at 1 uM by Western blot analysis relative to control; assay type: cell-based; details: THP-1
Target sequence in this assay (Q96SW2 whole entry, looked up, one chain of several): as above

Protein cereblon = Protein cereblon (Homo sapiens, UniProt Q96SW2); test: Inhibition of CRBN (unknown origin)
[8] = molecular target: T4, Protein cereblon/Interleukin-1 receptor-associated kinase 3; test: Protac activity at CRBN/IRAK3 in LPS-induced human THP1 cells assessed as induction of IRAK3 degradation after 16 hrs by Western blot analysis; assay type: cell-based; details: thp-1
Target sequence in this assay (Q96SW2 whole entry, one chain of several): as the sequence (Q96SW2 whole entry, looked up, one chain of several) above

[9] = molecular target: T4, Protein cereblon/Interleukin-1 receptor-associated kinase 3; test: Protac activity at CRBN/IRAK3 in LPS-induced human THP1 cells assessed as induction of IRAK3 degradation after 16 hrs by Western blot analysis relative to control; assay type: cell-based; details: THP-1
Target sequence in this assay (Q96SW2 whole entry, looked up, one chain of several): as above

[10] = molecular target: Interleukin-1 receptor-associated kinase 1 (Homo sapiens, UniProt P51617); test: Inhibition of recombinant human N-terminal GST-tagged IRAK1 (194 to 712 residues) expressed in baculovirus expression system using 5-FAM-KKKVSRSGLYRSPSMPENLNRPR-COOH as substrate measured after 240 mins by mobility shift assay
Sequence of Interleukin-1 receptor-associated kinase 1 (P51617 whole entry, the tested form may be a part): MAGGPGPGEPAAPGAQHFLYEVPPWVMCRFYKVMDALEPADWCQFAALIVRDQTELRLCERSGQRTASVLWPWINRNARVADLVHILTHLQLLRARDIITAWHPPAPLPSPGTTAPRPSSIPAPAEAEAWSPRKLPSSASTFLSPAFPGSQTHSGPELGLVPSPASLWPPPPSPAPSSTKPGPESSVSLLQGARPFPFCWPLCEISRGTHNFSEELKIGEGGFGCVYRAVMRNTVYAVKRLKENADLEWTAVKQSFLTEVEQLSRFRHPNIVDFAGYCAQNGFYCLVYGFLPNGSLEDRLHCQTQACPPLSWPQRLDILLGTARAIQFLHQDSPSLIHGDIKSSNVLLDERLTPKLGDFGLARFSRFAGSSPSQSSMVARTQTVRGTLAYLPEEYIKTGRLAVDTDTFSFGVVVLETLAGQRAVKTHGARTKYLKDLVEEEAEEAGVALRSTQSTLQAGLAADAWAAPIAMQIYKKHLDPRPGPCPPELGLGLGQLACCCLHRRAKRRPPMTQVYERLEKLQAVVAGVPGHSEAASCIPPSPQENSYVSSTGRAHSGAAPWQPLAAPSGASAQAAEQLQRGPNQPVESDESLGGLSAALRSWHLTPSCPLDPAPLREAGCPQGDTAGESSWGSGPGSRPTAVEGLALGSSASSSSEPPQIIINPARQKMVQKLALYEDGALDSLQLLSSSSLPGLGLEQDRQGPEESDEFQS

T1 sequence (P40337 whole entry, looked up, one chain of several): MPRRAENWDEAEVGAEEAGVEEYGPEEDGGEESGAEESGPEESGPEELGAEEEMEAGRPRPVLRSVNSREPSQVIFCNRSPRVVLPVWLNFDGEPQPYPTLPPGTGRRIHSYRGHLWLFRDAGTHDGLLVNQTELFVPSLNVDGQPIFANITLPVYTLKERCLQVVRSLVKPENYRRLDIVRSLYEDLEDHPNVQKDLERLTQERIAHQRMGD
Sequence of Protein cereblon (Q96SW2 whole entry): as the sequence (Q96SW2 whole entry, looked up, one chain of several) above

Row | Compound | Activity [1] [%] | IC50 [2] [nM] | IC50 [3] [nM] | logD [4] | Activity [5] [%] | Activity [6] [%] | Activity [7] [%] | IC50 (Protein cereblon) [nM] | DC50 [8] [nM] | Emax [9] [%] | IC50 [10] [nM]
1 | Cc1ncsc1-c1ccc(CNC(=O)[C@@H]2C[C@@H](O)CN2C(=O)[C@@H](NC(=O)COCCOCCOCCNC(=O)CCC(=O)N2CCN([C@H]3CC[C@@H](Nc4ncnn5ccc(C(C)C)c45)CC3)CC2)C(C)(C)C)cc1 | 0 | 25 | > 1000 | 3.1 | 0 | – | – | – | – | – | –
2 | CC(C)c1ccn2ncnc(N[C@H]3CC[C@@H](N4CCN(C(=O)CCC(=O)NCCOCCOCCOCCOCCNc5cccc6c5C(=O)N(C5CCC(=O)NC5=O)C6=O)CC4)CC3)c12 (stereo partly specified) | – | 22 | > 1000 | 2 | – | 55 | 85 | – | – | – | –
3 | Cc1ncsc1-c1ccc(CNC(=O)[C@@H]2C[C@@H](O)CN2C(=O)[C@@H](NC(=O)CCCNC(=O)CCC(=O)N2CCN([C@H]3CC[C@@H](Nc4ncnn5ccc(C(C)C)c45)CC3)CC2)C(C)(C)C)cc1 | 0 | 15 | > 1000 | 3.7 | 0 | – | – | – | – | – | –
4 | CC(C)c1ccn2ncnc(N[C@H]3CC[C@@H](N4CCN(C(=O)CCC(=O)NCCCCCCNc5cccc6c5C(=O)N(C5CCC(=O)NC5=O)C6=O)CC4)CC3)c12 (stereo partly specified) | – | 21 | 2600 | 3.7 | – | 0 | 0 | – | – | – | –
5 | Cc1ncsc1-c1ccc(CNC(=O)[C@@H]2C[C@@H](O)CN2C(=O)[C@@H](NC(=O)COCCOCCNC(=O)CCC(=O)N2CCN([C@H]3CC[C@@H](Nc4ncnn5ccc(C(C)C)c45)CC3)CC2)C(C)(C)C)cc1 | 0 | 24 | > 10000 | 3.3 | 20 | – | – | – | – | – | –
6 | Cc1ncsc1-c1ccc(CNC(=O)[C@@H]2C[C@@H](O)CN2C(=O)[C@@H](NC(=O)COCCOCCOCCOCC(=O)N2CCN([C@H]3CC[C@@H](Nc4ncnn5ccc(C(C)C)c45)CC3)CC2)C(C)(C)C)cc1 | 25 | 21 | > 10000 | 3.2 | 62 | – | – | – | – | – | –
7 | Cc1ncsc1-c1ccc(CNC(=O)[C@@H]2C[C@@H](O)CN2C(=O)[C@@H](NC(=O)COCCOCCOCCOCCOCCOCC(=O)N2CCN([C@H]3CC[C@@H](Nc4ncnn5ccc(C(C)C)c45)CC3)CC2)C(C)(C)C)cc1 | 20 | 33 | > 10000 | 2.8 | 43 | – | – | – | – | – | –
8 | Cc1ncsc1-c1ccc(CNC(=O)[C@@H]2C[C@@H](O)CN2C(=O)[C@@H](NC(=O)CCCCCCNC(=O)CCC(=O)N2CCN([C@H]3CC[C@@H](Nc4ncnn5ccc(C(C)C)c45)CC3)CC2)C(C)(C)C)cc1 | 0 | 6 | > 1000 | > 3 | 0 | – | – | – | – | – | –
9 | CC(=O)N1CCN([C@H]2CC[C@H](Nc3ncnn4ccc(C(C)C)c34)CC2)CC1 | – | 31 | – | – | – | – | – | – | – | – | –

Further compounds by falling IC50 [2], results first:

Row | Activity [1] [%] | IC50 [2] [nM] | IC50 [3] [nM] | logD [4] | Activity [5] [%] | Activity [6] [%] | Activity [7] [%] | IC50 (Protein cereblon) [nM] | DC50 [8] [nM] | Emax [9] [%] | IC50 [10] [nM] | Compound
10 | 21 | 51 | – | – | 67 | – | – | – | – | – | – | Cc1ncsc1-c1ccc(CNC(=O)[C@@H]2C[C@@H](O)CN2C(=O)[C@@H](NC(=O)COCCOCCOCCOCCOCC(=O)N2CCN([C@H]3CC[C@@H](Nc4ncnn5ccc(C(C)C)c45)CC3)CC2)C(C)(C)C)cc1
11 | – | 50 | > 10000 | 2.2 | – | 27 | 48 | – | – | – | – | CC(C)c1ccn2ncnc(N[C@H]3CC[C@@H](N4CCN(C(=O)CCOCCOCCOCCOCCNc5cccc6c5C(=O)N(C5CCC(=O)NC5=O)C6=O)CC4)CC3)c12 (stereo partly specified)
12 | – | 34 | 7800 | 2.3 | – | 21 | 24 | – | – | – | – | CC(C)c1ccn2ncnc(N[C@H]3CC[C@@H](N4CCN(C(=O)CCOCCOCCOCCNc5cccc6c5C(=O)N(C5CCC(=O)NC5=O)C6=O)CC4)CC3)c12 (stereo partly specified)
13 | – | 33 | > 10000 | 2.1 | – | 49 | 78 | – | – | – | – | CC(C)c1ccn2ncnc(N[C@H]3CC[C@@H](N4CCN(C(=O)CCOCCOCCOCCOCCOCCNc5cccc6c5C(=O)N(C5CCC(=O)NC5=O)C6=O)CC4)CC3)c12 (stereo partly specified)
14 | – | 21 | > 1000 | 2.1 | – | 34 | 42 | – | – | – | – | CC(C)c1ccn2ncnc(N[C@H]3CC[C@@H](N4CCN(C(=O)CCC(=O)NCCOCCOCCOCCNc5cccc6c5C(=O)N(C5CCC(=O)NC5=O)C6=O)CC4)CC3)c12 (stereo partly specified)
15 | 0 | 19 | > 1000 | 3 | 0 | – | – | – | – | – | – | Cc1ncsc1-c1ccc(CNC(=O)[C@@H]2C[C@@H](O)CN2C(=O)[C@@H](NC(=O)COCCOCCOCCOCCNC(=O)CCC(=O)N2CCN([C@H]3CC[C@@H](Nc4ncnn5ccc(C(C)C)c45)CC3)CC2)C(C)(C)C)cc1
16 | – | 13 | > 1000 | 2.9 | – | 0 | 0 | – | – | – | – | CC(C)c1ccn2ncnc(N[C@H]3CC[C@@H](N4CCN(C(=O)CCC(=O)NCCCCNc5cccc6c5C(=O)N(C5CCC(=O)NC5=O)C6=O)CC4)CC3)c12 (stereo partly specified)
17 | – | 10 | 4900 | 2.3 | – | 13 | 17 | – | – | – | – | CC(C)c1ccn2ncnc(N[C@H]3CC[C@@H](N4CCN(C(=O)CCC(=O)NCCOCCOCCNc5cccc6c5C(=O)N(C5CCC(=O)NC5=O)C6=O)CC4)CC3)c12 (stereo partly specified)
18 | – | 6 | 5600 | 3.1 | – | – | – | 1200 | 52 | 74 | 5600 | CC(C)c1ccn2ncnc(N[C@H]3CC[C@@H](N4CCN(C(=O)CCC(=O)N5CCC(CN6CCN(c7ccc8c(c7)C(=O)N(C7CCC(=O)NC7=O)C8=O)CC6)CC5)CC4)CC3)c12 (stereo partly specified)

Reference: ChEMBL document CHEMBL4725370, “Discovery of Proteolysis-Targeting Chimera Molecules that Selectively Degrade the IRAK3 Pseudokinase” (J Med Chem, 2020)
